The target in this assay is T1, Amylin 3(a) receptor (human calcitonin receptor (CTa) and RAMP-3) (Homo sapiens, UniProt O60896+P30988).
T1 construct: expressed in transfected cells; host or cells: BHK570 cells, stably transfected with a CRE-luciferase reporter
In words: Luciferase assay (III), BHK Amylin 3(a)//CRE-luc cells. It counts as cell-based. As to conditions: BHK cells with Amylin 3(a) receptor and CRE luciferase reporter, 4 hours incubation; read-out: Potency Luciferase. In a few lines: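 BHK570 cells stably expressing CTa, RAMP-3 and a CRE-luciferase reporter, seeded at about 20,000 cells/well and grown overnight. Cells were exposed to standard or sample for 4 h at 37° C in phenol red-free DMEM with 10% FBS and 10 mM Hepes, pH 7,4. Luminescence was read after 30 min LucLite at room temperature.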

Structures are written as SMILES. *1 amine or outer side, *2 acyl side, *3 side chain or, on linkers, in order; H or OH if unused. Where a SMILES comes first, the peptide text is derived from it. Bridges are numbered along the chain shown (N, C = ends). The star is where a group is joined. C20 diacid = O=C(O)CCCCCCCCCCCCCCCCCCC(=O)*; γGlu = O=C(O)[C@H](CCC(=O)[*:2])N[*:1]

T1 sequence (O60896 24-148): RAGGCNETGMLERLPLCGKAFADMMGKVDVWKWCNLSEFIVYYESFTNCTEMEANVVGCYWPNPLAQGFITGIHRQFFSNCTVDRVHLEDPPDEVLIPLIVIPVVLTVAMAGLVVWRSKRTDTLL
T1 sequence (P30988 25-474): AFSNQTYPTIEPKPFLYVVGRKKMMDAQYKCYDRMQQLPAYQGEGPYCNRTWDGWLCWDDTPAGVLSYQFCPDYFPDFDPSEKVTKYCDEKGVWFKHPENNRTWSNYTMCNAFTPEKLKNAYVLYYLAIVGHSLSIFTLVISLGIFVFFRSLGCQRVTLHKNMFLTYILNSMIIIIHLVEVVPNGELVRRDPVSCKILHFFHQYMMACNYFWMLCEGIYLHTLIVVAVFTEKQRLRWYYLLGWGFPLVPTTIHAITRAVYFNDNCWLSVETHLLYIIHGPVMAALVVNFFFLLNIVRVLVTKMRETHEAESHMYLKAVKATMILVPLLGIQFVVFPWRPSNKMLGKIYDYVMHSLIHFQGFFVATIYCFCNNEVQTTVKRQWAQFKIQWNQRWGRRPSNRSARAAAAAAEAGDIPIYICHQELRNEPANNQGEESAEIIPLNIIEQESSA

Take `CC[C@H](C)[C@H](NC(=O)[C@@H]1CCCN1C(=O)CNC(=O)[C@H](Cc1ccccc1)NC(=O)[C@H](CC(N)=O)NC(=O)[C@H](CC(N)=O)NC(=O)[C@H](CO)NC(=O)[C@H](CO)NC(=O)[C@H](Cc1c[nH]cn1)NC(=O)[C@H](CCCNC(=N)N)NC(=O)[C@H](CC(C)C)NC(=O)[C@H](Cc1ccccc1)NC(=O)[C@H](CC(N)=O)NC(=O)[C@H](C)NC(=O)[C@H](CC(C)C)NC(=O)[C@H](CCCNC(=N)N)NC(=O)[C@H](CCC(N)=O)NC(=O)[C@@H](NC(=O)[C@H](C)NC(=O)[C@@H]1CSSC[C@H](NC(=O)[C@H](Cc2c[nH]cn2)NC(=O)[C@H](Cc2c[nH]cn2)NC(=O)CC[C@H](NC(=O)CCCCCCCCCCCCCCCCCCC(=O)O)C(=O)O)C(=O)N[C@@H](CC(N)=O)C(=O)N[C@@H]([C@@H](C)O)C(=O)N[C@@H](C)C(=O)N[C@@H]([C@@H](C)O)C(=O)N1)[C@@H](C)O)C(=O)N[C@@H](CC(C)C)C(=O)N1CCC[C@H]1C(=O)N1CCC[C@H]1C(=O)N[C@H](C(=O)N[C@@H](CC(N)=O)C(=O)N[C@H](C(=O)NCC(=O)N[C@@H](CO)C(=O)N[C@@H](CC(N)=O)C(=O)N[C@H](C(=O)N[C@@H](Cc1ccc(O)cc1)C(N)=O)[C@@H](C)O)C(C)C)[C@@H](C)O` [Example 35, N-alpha-[(S)-4-Carboxy-4-(19-carboxynonadecanoylamino)butyryl]-His-[His1,Arg17]-pramlintide] ({C20 diacid-γGlu}-HHCNTATCATQRLANFLRHSSNNFGPILPPTNVGSNTY-NH2; disulfide 3-8): the EC50 came out at 0.1 nM. Turning to `CC[C@H](C)[C@H](NC(=O)[C@@H]1CCCN1C(=O)CNC(=O)[C@H](Cc1ccccc1)NC(=O)[C@H](CC(N)=O)NC(=O)[C@H](CC(N)=O)NC(=O)[C@H](CO)NC(=O)[C@H](CO)NC(=O)[C@H](Cc1c[nH]cn1)NC(=O)[C@H](CCCNC(=N)N)NC(=O)[C@H](CC(C)C)NC(=O)[C@H](Cc1ccccc1)NC(=O)[C@H](CC(N)=O)NC(=O)[C@H](C)NC(=O)[C@H](CC(C)C)NC(=O)[C@H](CCCNC(=N)N)NC(=O)[C@H](CCC(N)=O)NC(=O)[C@@H](NC(=O)[C@H](C)NC(=O)[C@@H]1CSSC[C@H](NC(=O)[C@H](Cc2c[nH]cn2)NC(=O)CC[C@H](NC(=O)CCCCCCCCCCCCCCCCCCC(=O)O)C(=O)O)C(=O)N[C@@H](CC(N)=O)C(=O)N[C@@H]([C@@H](C)O)C(=O)N[C@@H](C)C(=O)N[C@@H]([C@@H](C)O)C(=O)N1)[C@@H](C)O)C(=O)N[C@@H](CC(C)C)C(=O)N1CCC[C@H]1C(=O)N1CCC[C@H]1C(=O)N[C@H](C(=O)N[C@@H](CC(N)=O)C(=O)N[C@H](C(=O)NCC(=O)N[C@@H](CO)C(=O)N[C@@H](CC(N)=O)C(=O)N[C@H](C(=O)N[C@@H](Cc1ccc(O)cc1)C(N)=O)[C@@H](C)O)C(C)C)[C@@H](C)O` [Example 36, N-alpha-[(S)-4-Carboxy-4-(19-carboxynonadecanoylamino)butyryl]-[His1,Arg17]-pramlintide] ({C20 diacid-γGlu}-HCNTATCATQRLANFLRHSSNNFGPILPPTNVGSNTY-NH2; disulfide 2-7), the EC50 stood at 0.1 nM.

For `CC(C)C[C@H](NC(=O)[C@H](CCCNC(=N)N)NC(=O)[C@H](CCC(N)=O)NC(=O)[C@@H](NC(=O)[C@H](C)NC(=O)[C@@H]1CSSC[C@H](NC(=O)[C@H](CCC(=O)O)NC(=O)[C@H](CCCNC(=N)N)NC(=O)[C@H](CCC(=O)O)NC(=O)CC[C@H](NC(=O)CCCCCCCCCCCCCCCCCCC(=O)O)C(=O)O)C(=O)N[C@@H](CC(N)=O)C(=O)N[C@@H]([C@@H](C)O)C(=O)N[C@@H](C)C(=O)N[C@@H]([C@@H](C)O)C(=O)N1)[C@@H](C)O)C(=O)N[C@@H](C)C(=O)N[C@@H](CC(N)=O)C(=O)N[C@@H](Cc1ccccc1)C(=O)N[C@@H](CC(C)C)C(=O)N[C@@H](Cc1c[nH]cn1)C(=O)N[C@@H](Cc1c[nH]cn1)C(=O)N[C@@H](CO)C(=O)N[C@@H](CO)C(=O)N[C@@H](CCC(N)=O)C(=O)N[C@@H](CC(N)=O)C(=O)N[C@@H](Cc1ccccc1)C(=O)NCC(=O)N[C@@H](C)C(=O)N1CCC[C@H]1C(=O)N[C@@H](CC(C)C)C(=O)N[C@@H](CO)C(=O)N[C@@H](CO)C(=O)N[C@H](C(=O)N[C@@H](CC(N)=O)C(=O)N[C@H](C(=O)NCC(=O)N[C@@H](CO)C(=O)N[C@@H](CC(N)=O)C(=O)N[C@H](C(=O)N[C@@H](Cc1ccc(O)cc1)C(N)=O)[C@@H](C)O)C(C)C)[C@@H](C)O` [Example 41, N-alpha-[(S)-4-Carboxy-4-(19-carboxynonadecanoylamino)butyryl]-Glu-Arg-[Glu1,His17,Gln21,Ala25,Pro26,Ser28,Ser29]-pramlintide] ({C20 diacid-γGlu}-ERECNTATCATQRLANFLHHSSQNFGAPLSSTNVGSNTY-NH2; disulfide 4-9), the EC50 is 0.1 nM. For `CC(C)C[C@H](NC(=O)[C@H](CCCNC(=N)N)NC(=O)[C@H](CCC(N)=O)NC(=O)[C@@H](NC(=O)[C@H](C)NC(=O)[C@@H]1CSSC[C@H](NC(=O)[C@H](CCC(=O)O)NC(=O)[C@H](CCCNC(=N)N)NC(=O)[C@H](CCC(=O)O)NC(=O)CC[C@H](NC(=O)CCCCCCCCCCCCCCCCCCC(=O)O)C(=O)O)C(=O)N[C@@H](CC(N)=O)C(=O)N[C@@H]([C@@H](C)O)C(=O)N[C@@H](C)C(=O)N[C@@H]([C@@H](C)O)C(=O)N1)[C@@H](C)O)C(=O)N[C@@H](C)C(=O)N[C@@H](CC(=O)O)C(=O)N[C@@H](Cc1ccccc1)C(=O)N[C@@H](CC(C)C)C(=O)N[C@@H](Cc1c[nH]cn1)C(=O)N[C@@H](Cc1c[nH]cn1)C(=O)N[C@@H](CO)C(=O)N[C@@H](CO)C(=O)N[C@@H](CC(N)=O)C(=O)N[C@@H](CC(N)=O)C(=O)N[C@@H](Cc1ccccc1)C(=O)NCC(=O)N[C@@H](C)C(=O)N1CCC[C@H]1C(=O)N[C@@H](CC(C)C)C(=O)N[C@@H](CO)C(=O)N[C@@H](CO)C(=O)N[C@H](C(=O)N[C@@H](CC(N)=O)C(=O)N[C@H](C(=O)NCC(=O)N[C@@H](CO)C(=O)N[C@@H](CC(N)=O)C(=O)N[C@H](C(=O)N[C@@H](Cc1ccc(O)cc1)C(N)=O)[C@@H](C)O)C(C)C)[C@@H](C)O` [Example 42, N-alpha-[(S)-4-Carboxy-4-(19-carboxynonadecanoylamino)butyryl]-Glu-Arg-[Glu1,Asp14,His17,Ala25,Pro26,Ser28,Ser29]-pramlintide] ({C20 diacid-γGlu}-ERECNTATCATQRLADFLHHSSNNFGAPLSSTNVGSNTY-NH2; disulfide 4-9) the value was 0.6 nM; for `CC[C@H](C)[C@H](NC(=O)[C@@H]1CCCN1C(=O)CNC(=O)[C@H](Cc1ccccc1)NC(=O)[C@H](CC(N)=O)NC(=O)[C@H](CC(N)=O)NC(=O)[C@H](CO)NC(=O)[C@H](CO)NC(=O)[C@H](Cc1c[nH]cn1)NC(=O)[C@H](Cc1c[nH]cn1)NC(=O)[C@H](CC(C)C)NC(=O)[C@H](Cc1ccccc1)NC(=O)[C@H](CC(=O)O)NC(=O)[C@H](C)NC(=O)[C@H](CC(C)C)NC(=O)[C@H](CCCNC(=N)N)NC(=O)[C@H](CCC(N)=O)NC(=O)[C@@H](NC(=O)[C@H](C)NC(=O)[C@@H]1CSSC[C@H](NC(=O)CC[C@H](NC(=O)CCCCCCCCCCCCCCCCCCC(=O)O)C(=O)O)C(=O)N[C@@H](CC(N)=O)C(=O)N[C@@H]([C@@H](C)O)C(=O)N[C@@H](C)C(=O)N[C@@H]([C@@H](C)O)C(=O)N1)[C@@H](C)O)C(=O)N[C@@H](CC(C)C)C(=O)N1CCC[C@H]1C(=O)N1CCC[C@H]1C(=O)N[C@H](C(=O)N[C@@H](CC(N)=O)C(=O)N[C@H](C(=O)NCC(=O)N[C@@H](CO)C(=O)N[C@@H](CC(N)=O)C(=O)N[C@H](C(=O)N[C@@H](Cc1ccc(O)cc1)C(N)=O)[C@@H](C)O)C(C)C)[C@@H](C)O` [Example 43, N-alpha-[(S)-4-Carboxy-4-(19-carboxynonadecanoylamino)butyryl]-[Asp14,His17]-pramlintide (2-37)] ({C20 diacid-γGlu}-CNTATCATQRLADFLHHSSNNFGPILPPTNVGSNTY-NH2; disulfide 1-6), 0.1 nM; for `CC[C@H](C)[C@H](NC(=O)[C@@H]1CCCN1C(=O)[C@H](CCC(=O)O)NC(=O)[C@H](Cc1ccccc1)NC(=O)[C@H](CC(N)=O)NC(=O)[C@H](CC(N)=O)NC(=O)[C@H](CO)NC(=O)[C@H](CO)NC(=O)[C@H](Cc1c[nH]cn1)NC(=O)[C@H](Cc1c[nH]cn1)NC(=O)[C@H](CC(C)C)NC(=O)[C@H](Cc1ccccc1)NC(=O)[C@H](CC(N)=O)NC(=O)[C@H](C)NC(=O)[C@H](CC(C)C)NC(=O)[C@H](CCCNC(=N)N)NC(=O)[C@H](CCC(N)=O)NC(=O)[C@@H](NC(=O)[C@H](C)NC(=O)[C@@H]1CSSC[C@H](NC(=O)CC[C@H](NC(=O)CCCCCCCCCCCCCCCCCCC(=O)O)C(=O)O)C(=O)N[C@@H](CC(N)=O)C(=O)N[C@@H]([C@@H](C)O)C(=O)N[C@@H](C)C(=O)N[C@@H]([C@@H](C)O)C(=O)N1)[C@@H](C)O)C(=O)N[C@@H](CC(C)C)C(=O)N1CCC[C@H]1C(=O)N1CCC[C@H]1C(=O)N[C@H](C(=O)N[C@@H](CC(N)=O)C(=O)N[C@H](C(=O)NCC(=O)N[C@@H](CO)C(=O)N[C@@H](CC(N)=O)C(=O)N[C@H](C(=O)N[C@@H](Cc1ccc(O)cc1)C(N)=O)[C@@H](C)O)C(C)C)[C@@H](C)O` [Example 44, N-alpha-[(S)-4-Carboxy-4-(19-carboxynonadecanoylamino)butyryl]-[His17,Glu24]-pramlintide (2-37)] ({C20 diacid-γGlu}-CNTATCATQRLANFLHHSSNNFEPILPPTNVGSNTY-NH2; disulfide 1-6), 0.1 nM.

These data come from patent US8895504B2, “Amylin derivatives” (priority 2008, dated 2014).
